Experimental data taken from US8742116B2, “Cycloalkylamine substituted isoquinolone derivatives” (Sanofi, priority 2006, dated 2014).

Molecular target: T1, Active human recombinant ROCK II (N-terminal His6-tagged recombinant human ROCK-II residues 11-552) (Homo sapiens, UniProt O75116)
T1 construct: recombinant human ROCK-II residues 11-552; His6 (N); purchased Upstate Ltd., Dundee, UK
Assay: Determination of Rho Kinase Inhibition (Caliper peptide phosphorylation assay)
Format: biochemical
Settings: Fluorescein-AKRRRLSSLRA-COOH substrate and ATP, 60 min incubation at 32° C., respective form (salt or free base) obtained as in the examples
Method: Determination of Rho Kinase Inhibition
To measure Rho-kinase inhibition, IC50 values were determined according to the following protocol:
Active human recombinant ROCK II (N-terminal His6-tagged recombinant human ROCK-II residues 11-552) was purchased from Upstate Ltd., Dundee, UK. The peptide substrate, Fluorescein-AKRRRLSSLRA-COOH, was obtained from JPT Peptide Technologies, Berlin, Germany. Adenosine-5′-triphosphate (ATP), bovine serum albumine (BSA), dimethylsulphoxide (DMSO), 4-(2-hydroxyethyl)piperazine-1-ethanesulfonic acid (Hepes), Brij-35 and dithiothreitol (DTT) were purchased from Sigma-Aldrich, Munich, Germany. Tris(hydroxymethyl)-aminomethane (Tris), magnesium chloride, NaOH, 1 M HCl and EDTA were obtained from Merck Biosciences, Darmstadt, Germany. “Complete” protease inhibitor was from Roche Diagnostics, Mannheim, Germany.
Test compounds were diluted to the appropriate concentrations in buffer 1 (25 mM Tris-HCl, pH 7.4, 5 mM MgCl2, 2 mM DTT, 0.02% (w/v) BSA and 3% DMSO). The ROCK II enzyme was diluted to a concentration of 100 ng/ml in buffer 2 (25 mM Tris-HCl, pH 7.4, 5 mM MgCl2, 2 mM DTT and 0.02% (w/v) BSA). The peptide substrate and ATP were diluted to concentrations of 3 μM and 120 μM, respectively, in the buffer 2. 2 μl of the compound solution were mixed with 2 μl of the diluted enzyme in a 384-well small volume microtiter plate (Greiner, Bio-One, Frickenhausen, Germany), and the kinase reaction was initiated by addition of 2 μl of the solution containing peptide substrate and ATP. After 60 min incubation at 32° C., the reaction was stopped by addition of 20 μl of a solution containing 100 mM Hepes-NaOH, pH 7.4, 0.015% (v/v) Brij-35, 45 mM EDTA and 0.227% chip coating reagent 1 (Caliper Lifescience Inc, Hopkinton, Mass.). Phosphorylation of the substrate peptide was then detected on a Caliper 3000 instrument essentially as described by Pommereau et al. (J. Biomol. Screening 2004, 9(5), 409-416). Separation conditions were as follows: Pressure—1.3 psi, upstream voltage—1562 V, downstream voltage—500 V, sample sip time 200 ms. Positive controls (buffer 1 instead of compound) and negative controls (buffer 1 instead of compound and buffer 2 instead of ROCK II) were run in parallel on each plate.
The following products/compounds were tested in said assay by using the respective form (salt or free base) obtained as in the examples described above and the following activities were measured.

T1 sequence (O75116 11-552): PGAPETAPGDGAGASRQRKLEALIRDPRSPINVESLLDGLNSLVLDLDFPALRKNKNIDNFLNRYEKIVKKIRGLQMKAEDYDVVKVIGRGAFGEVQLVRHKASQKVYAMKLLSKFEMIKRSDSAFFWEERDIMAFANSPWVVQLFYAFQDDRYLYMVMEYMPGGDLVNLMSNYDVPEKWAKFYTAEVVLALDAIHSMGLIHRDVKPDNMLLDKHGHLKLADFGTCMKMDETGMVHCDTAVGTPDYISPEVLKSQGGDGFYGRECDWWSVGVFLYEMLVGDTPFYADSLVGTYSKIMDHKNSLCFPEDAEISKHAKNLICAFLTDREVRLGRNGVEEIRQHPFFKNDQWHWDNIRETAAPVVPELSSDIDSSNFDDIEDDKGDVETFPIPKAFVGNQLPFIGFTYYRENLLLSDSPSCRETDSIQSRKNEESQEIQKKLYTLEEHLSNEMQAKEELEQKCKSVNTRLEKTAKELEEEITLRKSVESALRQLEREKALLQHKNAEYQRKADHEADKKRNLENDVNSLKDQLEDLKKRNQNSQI

| SMILES | IC50 |
| --- | --- |
| O=C(CCC1CCNCC1)N[C@H]1CC[C@@H](Oc2cc3cc[nH]c(=O)c3cc2Cl)CC1 [Compound 30, N-[4-(7-Chloro-1-oxo-1,2-dihydro-isoquinolin-6-yloxy)-cis-cyclohexyl]-3-piperidin-4-yl-propionamide] | ≤ 1 µM |
| N[C@@H]1CC[C@H](Oc2ccc3c(=O)[nH]ccc3c2)C1 [Compound 45, 6-((1S,3R)-3-Amino-cyclopentyloxy)-2H-isoquinolin-1-one] | ≤ 1 µM |
| O=C(O)CN[C@H]1CC[C@@H](Oc2cc3cc[nH]c(=O)c3cc2Cl)CC1 [Compound 24, [4-(7-Chloro-1-oxo-1,2-dihydro-isoquinolin-6-yloxy)-cis-cyclohexylamino]-acetic acid] | ≤ 1 µM |
| N[C@H]1CC[C@H](Oc2cc3cc[nH]c(=O)c3cc2Cl)C1 [Compound 44, 6-((1S,3S)-3-Amino-cyclopentyloxy)-7-chloro-2H-isoquinolin-1-one] | ≤ 1 µM |
| N[C@H]1CCC[C@@H](Oc2cc3cc[nH]c(=O)c3cc2Cl)CC1 (relative stereo) [Compound 48, 7-Chloro-6-(cis-4-Amino-cycloheptyloxy)-2H-isoquinolin-1-one] | ≤ 1 µM |
| Cc1cc2c(=O)[nH]ccc2cc1O[C@H]1CC[C@H](NC(=O)CCC2CCNCC2)CC1 [Compound 28, N-[4-(7-Methyl-1-oxo-1,2-dihydro-isoquinolin-6-yloxy)-trans-cyclohexyl]-3-piperidin-4-yl-propionamide] | 1 to 10 µM |
| CN1CCN([C@H]2CC[C@H](Oc3cc4cc[nH]c(=O)c4cc3Cl)CC2)CC1 [Compound 21, 7-Chloro-6-[4-(4-methyl-piperazin-1-yl)-cyclohexyloxy]-2H-isoquinolin-1-one] | ≤ 1 µM |
| O=C(CC1CCNCC1)N[C@H]1CC[C@@H](Oc2cc3cc[nH]c(=O)c3cc2Cl)CC1 [Compound 31, N-[4-(7-Chloro-1-oxo-1,2-dihydro-isoquinolin-6-yloxy)-cis-cyclohexyl]-2-piperidin-4-yl-acetamide] | ≤ 1 µM |
| Cc1cc2c(=O)[nH]ccc2cc1O[C@@H]1CCC[C@H](N)CC1 (relative stereo) [Compound 47, 6-(cis-4-Amino-cycloheptyloxy)-7-methyl-2H-isoquinolin-1-one] | ≤ 1 µM |
| NC1CC(Oc2cc3cc[nH]c(=O)c3cc2Cl)C1 (mixture of isomers) [Compound 54, 6-(3-Amino-cyclobutoxy)-7-chloro-2H-isoquinolin-1-one] | ≤ 1 µM |

Other lines, results leading:

| IC50 | SMILES |
| --- | --- |
| ≤ 1 µM | O=c1[nH]ccc2cc(O[C@H]3CC[C@H](N4CCOCC4)CC3)c(Cl)cc12 [Compound 17, 7-Chloro-6-(4-morpholin-4-yl-cyclohexyloxy)-2H-isoquinolin-1-one] |
| ≤ 1 µM | CCC[C@]1(N)CCC[C@@H](Oc2cc3cc[nH]c(=O)c3cc2Cl)CCC1 (single isomer, unassigned) [Compound 66, 6-(cis-5-Amino-5-propyl-cyclooctyloxy)-7-chloro-2H-isoquinolin-1-one] |
| ≤ 1 µM | N[C@H]1C[C@H](COc2cc3cc[nH]c(=O)c3cc2Cl)C1 [Compound 56, trans-6-(3-Amino-cyclobutylmethoxy)-7-chloro-2H-isoquinolin-1-one] |
| ≤ 1 µM | O=c1[nH]ccc2cc(OC3CCC(N4CCCCC4)CC3)c(Cl)cc12 (mixture of isomers) [Compound 16, 7-Chloro-6-(4-piperidin-1-yl-cyclohexyloxy)-2H-isoquinolin-1-one] |
| ≤ 1 µM | O=c1[nH]ccc2cc(OC3CCC(N4CCOCC4)CC3)c(Cl)cc12 (mixture of isomers) [Compound 18, 7-Chloro-6-(4-morpholin-4-yl-cyclohexyloxy)-2H-isoquinolin-1-one] |
| ≤ 1 µM | O=c1[nH]ccc2cc(O[C@H]3CC[C@H](N4CCCC4)CC3)c(Cl)cc12 [Compound 19, 7-Chloro-6-(4-pyrrolidin-1-yl-cyclohexyloxy)-2H-isoquinolin-1-one] |
| ≤ 1 µM | O=c1[nH]ccc2cc(O[C@H]3CC[C@@H](N4CCCC4)CC3)c(Cl)cc12 [Compound 20, 7-Chloro-6-(4-pyrrolidin-1-yl-cyclohexyloxy)-2H-isoquinolin-1-one] |
| 1 to 10 µM | Cc1cc2c(=O)[nH]ccc2cc1O[C@H]1CC[C@H](NC(=O)CC2CCNCC2)CC1 [Compound 29, N-[4-(7-Methyl-1-oxo-1,2-dihydro-isoquinolin-6-yloxy)-trans-cyclohexyl]-2-piperidin-4-yl-acetamide] |
| ≤ 1 µM | NC(=O)C1CCN(C2CCC(Oc3cc4cc[nH]c(=O)c4cc3Cl)CC2)CC1 (mixture of isomers) [Compound 15, 1-[4-(7-Chloro-1-oxo-1,2-dihydro-isoquinolin-6-yloxy)-cyclohexyl]-piperidine-4-carboxylic acid amide] |
| ≤ 1 µM | CN1CCN([C@H]2CC[C@@H](Oc3cc4cc[nH]c(=O)c4cc3Cl)CC2)CC1 [Compound 22, 7-Chloro-6-[4-(4-methyl-piperazin-1-yl)-cyclohexyloxy]-2H-isoquinolin-1-one] |
| ≤ 1 µM | CCC[C@]1(N)CCC[C@H](Oc2cc3cc[nH]c(=O)c3cc2Cl)CCC1 (single isomer, unassigned) [Compound 67, 6-(trans-5-amino-5-propyl-cyclooctyloxy)-7-chloro-2H-isoquinolin-1-one] |
